Patent publication US11096952B2, “Chemicals and methods to prevent and treat TGF-beta mediated activation of fibroblasts to reduce and treat cancer and fibrosis” (Board of Supervisors of Louisiana State University and …, priority 2016, dated 2021)

What was measured:
[1] = system: WPMY-1 cells; test: Viability / metabolic activity assay on WPMY-1 cells
Procedure: Metabolically viable cells (indicated by bar; left y-axis) are indicated by fluorescent intensity (560/590 nm).
Cardiac glycosides have been shown previously to inhibit cell growth in a variety of cell types, in order to determine whether cardiac glycosides inhibited TGE-β-induced fibronectin expression by affecting metabolic activity, viability assays were performed on WPMY-1 cells over 48 hours in 1% FBS DMEM.

[2] = system: MRC-5 fibroblasts; test: Collagen/Matrigel contraction of MRC-5 fibroblasts; conditions: MRC-5 in collagen/Matrigel, 120 nM digoxin, 5 ng/ml TGF-β, 4 days
Procedure: (§1) WPMY-1 (A) and MRC-5 (B) fibroblasts were treated with or without 120 nM digoxin±5 ng/ml TGF-β. […] WPMY-1 (C) and MRC-5 (D) fibroblasts embedded in collagen/Matrigel were treated with or without 120 nM digoxin±5 ng/ml TGF-β for 4 days post seeding. Data are shown as percent contracted area from initial 100% well confluence. *P<0.05 and **P<0.01 indicate significant differences (n=3, Values are ±SEM).

[3] = system: WPMY-1 fibroblasts; test: Collagen/Matrigel contraction of WPMY-1 fibroblasts; conditions: WPMY-1 in collagen/Matrigel, 120 nM digoxin, 5 ng/ml TGF-β, 4 days
Procedure: as §1

[4] = system: EGR1 luciferase reporter; test: EGR1 luciferase reporter in WPMY-1 cells; assay type: cell-based, human; conditions: WPMY-1, digoxin 60 or 120 nM, 5 ng/ml TGF-β, 24 hours
Procedure: A) WPMY-1 human fibroblast cells transfected with SMAD (left) or EGR1 (right) luciferase reporter were treated with or without 5 ng/ml TGF-β in the presence or absence of Digoxin (60 or 120 nM) for 24 hours. Relative luciferase activity is shown. *P<0.05, **P<0.01, ***P<0.001 are significant differences compared to values set to 1 (n=3, Values are ±SEM). B) J2 mouse fibroblast cells were treated with or without 5 ng/ml TGF-β in the presence or absence of increasing concentrations (30, 60, 120, or 240 nM) of digoxin for 24 hours. Representative blot is shown with two exposures of fibronectin to account for strong signal intensity (n=3).
Finally, J2 mouse fibroblast cells were treated with or without 5 ng/ml TGF-β in the presence or absence of increasing concentrations (30, 60, 120, or 240 nM) of digoxin for 24 hours.

C[C@H]1O[C@@H](O[C@H]2[C@@H](O)C[C@H](O[C@H]3[C@@H](O)C[C@H](O[C@H]4CC[C@@]5(C)[C@H](CC[C@@H]6[C@@H]5C[C@@H](O)[C@]5(C)[C@@H](C7=CC(=O)OC7)CC[C@]65O)C4)O[C@@H]3C)O[C@@H]2C)C[C@H](O)[C@@H]1O [digoxin]
cell viability / metabolic activity [1]: no effect on cell viability
TGF-β induced contraction of fibroblasts [2]: inhibits TGF-β induced contraction of fibroblasts
TGF-β induced contraction of fibroblasts [3]: inhibits TGF-β induced contraction of fibroblasts
EGR-1 dependent promoter (luciferase) activity [4]: lowers the activation of promoter dependent on EGR-1
